Numbers after ± are expanded uncertainties.
Test: osmotic coefficient (dimensionless); mn = molality of the nth substance listed, in mol/kg
Settings: 323.15 K, Liquid, vapor pressure osmometry

CCC(C)O (centres undefined) [butan-2-ol] + COS(=O)(=O)[O-].Cc1ccc[n+](C)c1
Settings | osmotic coefficient
m1 = 0.0458 | 0.818 ± 0.014
m1 = 0.0728 | 0.729 ± 0.016
m1 = 0.0933 | 0.696 ± 0.016
m1 = 0.2019 | 0.605 ± 0.018
m1 = 0.3113 | 0.547 ± 0.02
m1 = 0.3991 | 0.512 ± 0.021
m1 = 0.4981 | 0.474 ± 0.022
m1 = 0.6846 | 0.441 ± 0.023
m1 = 0.9815 | 0.408 ± 0.024
m1 = 1.285 | 0.383 ± 0.025
m1 = 1.687 | 0.361 ± 0.026
m1 = 2.105 | 0.345 ± 0.026
m1 = 2.501 | 0.333 ± 0.026
m1 = 2.914 | 0.327 ± 0.027
m1 = 3.291 | 0.32 ± 0.027

CC(C)O [propan-2-ol] + COS(=O)(=O)[O-].Cc1ccc[n+](C)c1
Settings | osmotic coefficient
m1 = 0.072 | 0.969 ± 0.012
m1 = 0.1185 | 0.873 ± 0.013
m1 = 0.2149 | 0.767 ± 0.015
m1 = 0.3087 | 0.699 ± 0.016
m1 = 0.408 | 0.654 ± 0.017
m1 = 0.5005 | 0.628 ± 0.018
m1 = 0.7082 | 0.57 ± 0.019
m1 = 1.013 | 0.532 ± 0.02
m1 = 1.296 | 0.51 ± 0.021
m1 = 1.72 | 0.49 ± 0.022
m1 = 2.095 | 0.468 ± 0.022
m1 = 2.494 | 0.46 ± 0.023
m1 = 2.956 | 0.436 ± 0.023
m1 = 3.326 | 0.419 ± 0.024

CCCO [propan-1-ol] + COS(=O)(=O)[O-].Cc1ccc[n+](C)c1
Settings | osmotic coefficient
m1 = 0.0785 | 0.885 ± 0.013
m1 = 0.0971 | 0.803 ± 0.015
m1 = 0.2088 | 0.711 ± 0.016
m1 = 0.3089 | 0.671 ± 0.017
m1 = 0.4144 | 0.658 ± 0.017
m1 = 0.5126 | 0.642 ± 0.017
m1 = 0.8126 | 0.609 ± 0.018
m1 = 1.104 | 0.576 ± 0.019
m1 = 1.401 | 0.548 ± 0.02
m1 = 1.691 | 0.533 ± 0.02
m1 = 2.219 | 0.508 ± 0.021
m1 = 2.721 | 0.494 ± 0.022
m1 = 3.211 | 0.478 ± 0.022

CCCCCO [pentan-1-ol] + COS(=O)(=O)[O-].Cc1ccc[n+](C)c1
Settings | osmotic coefficient
m1 = 0.0303 | 0.77 ± 0.015
m1 = 0.0543 | 0.677 ± 0.017
m1 = 0.0875 | 0.618 ± 0.018
m1 = 0.1103 | 0.584 ± 0.019
m1 = 0.2153 | 0.505 ± 0.021
m1 = 0.3078 | 0.464 ± 0.022
m1 = 0.412 | 0.425 ± 0.024
m1 = 0.5092 | 0.401 ± 0.024
m1 = 0.8077 | 0.372 ± 0.025
m1 = 1.106 | 0.352 ± 0.026
m1 = 1.71 | 0.33 ± 0.027
m1 = 2.229 | 0.315 ± 0.027
m1 = 2.726 | 0.308 ± 0.027
m1 = 3.198 | 0.3 ± 0.028

CCCCO [butan-1-ol] + COS(=O)(=O)[O-].Cc1ccc[n+](C)c1
Settings | osmotic coefficient
m1 = 0.0259 | 0.824 ± 0.014
m1 = 0.0466 | 0.746 ± 0.015
m1 = 0.1056 | 0.668 ± 0.017
m1 = 0.2078 | 0.601 ± 0.019
m1 = 0.3112 | 0.528 ± 0.021
m1 = 0.4005 | 0.501 ± 0.021
m1 = 0.5132 | 0.469 ± 0.022
m1 = 0.9858 | 0.425 ± 0.024
m1 = 1.282 | 0.406 ± 0.024
m1 = 1.685 | 0.394 ± 0.025
m1 = 2.078 | 0.387 ± 0.025
m1 = 2.497 | 0.375 ± 0.025
m1 = 2.911 | 0.368 ± 0.025
